Assay results: ChEMBL document CHEMBL3885881, “DrugMatrix”

Species: Rattus norvegicus
Assay: DrugMatrix - Regimen: Daily Repeat
Format: toxicity, organism-based, Sprague-Dawley
Design: regimen Daily Repeat, gender Male, age 6-8 weeks
Settings: in vivo, po, route oral GAVAGE, […]; for ABSOLUTE BASOPHIL / ABSOLUTE EOSINOPHIL / ABSOLUTE LYMPHOCYTE / ABSOLUTE MONOCYTE / ABSOLUTE SEGMENTED NEUTROPHIL / BASOPHIL / EOSINOPHIL / ERYTHROCYTE COUNT / HEMATOCRIT / HEMOGLOBIN / LEUKOCYTE COUNT / LYMPHOCYTE / MEAN CORPUSCULAR HEMOGLOBIN / MEAN CORPUSCULAR HEMOGLOBIN CONCENTRATION / MEAN CORPUSCULAR VOLUME / MONOCYTE / NEUTROPHIL / NUCLEATED RED BLOOD CELLS / PLATELET COUNT: tissue Blood; for ALANINE AMINOTRANSFERASE / ALBUMIN / ALKALINE PHOSPHATASE / ASPARTATE AMINOTRANSFERASE / BLOOD UREA NITROGEN / CARBON DIOXIDE / CHLORIDE / CHOLESTEROL / CREATINE PHOSPHOKINASE / CREATININE / GLUCOSE / LACTATE DEHYDROGENASE / LIPASE / PHOSPHORUS / POTASSIUM / SODIUM / TOTAL BILIRUBIN / TOTAL PROTEIN / URIC ACID: tissue Plasma
[1] = 0 mg/kg, 72 h, dose level Control, time 3 day
[2] = 0 mg/kg, 120 h, dose level Control, time 5 day
[3] = 30 mg/kg, 72 h, dose level Low, time 3 day

COC1=CC(=O)C[C@@H](C)[C@]12Oc1c(Cl)c(OC)cc(OC)c1C2=O [GRISEOFULVIN]
ABSOLUTE BASOPHIL [1]: 0 CELLS/uL
ABSOLUTE EOSINOPHIL [1]: 0 CELLS/uL
ABSOLUTE LYMPHOCYTE [1]: 14687.67 CELLS/uL
ABSOLUTE MONOCYTE [1]: 164 CELLS/uL
ABSOLUTE SEGMENTED NEUTROPHIL [1]: 1748.33 CELLS/uL
BASOPHIL [1]: 0%
EOSINOPHIL [1]: 0%
ERYTHROCYTE COUNT [1]: 5.51 x10E6/uL
HEMATOCRIT [1]: 33.68%
HEMOGLOBIN [1]: 13.4 G/DL
LEUKOCYTE COUNT [1]: 16.6 x10E3/uL
LYMPHOCYTE [1]: 88.83%
MEAN CORPUSCULAR HEMOGLOBIN [1]: 24.47 pg
MEAN CORPUSCULAR HEMOGLOBIN CONCENTRATION [1]: 39.82 G/DL
MEAN CORPUSCULAR VOLUME [1]: 61.23 fL
MONOCYTE [1]: 0.83%
NEUTROPHIL [1]: 10.33%
NUCLEATED RED BLOOD CELLS [1]: 0 /100WBC
PLATELET COUNT [1]: 1329.67 x10E3/uL
ALANINE AMINOTRANSFERASE [1]: 61.33 u/L
ALBUMIN [1]: 4.18 G/DL
ALKALINE PHOSPHATASE [1]: 332.5 u/L
ASPARTATE AMINOTRANSFERASE [1]: 98.33 u/L
BLOOD UREA NITROGEN [1]: 15.83 mg/dL
CARBON DIOXIDE [1]: 27.83 mmol/L
CHLORIDE [1]: 100 MEQ/L
CHOLESTEROL [1]: 76.17 mg/dL
CREATINE PHOSPHOKINASE [1]: 729.17 u/L
CREATININE [1]: 0.21 mg/dL
GLUCOSE [1]: 151.83 mg/dL
LACTATE DEHYDROGENASE [1]: 484.67 u/L
LIPASE [1]: 10 u/L
PHOSPHORUS [1]: 11.3 mg/dL
POTASSIUM [1]: 6.1 MEQ/L
SODIUM [1]: 142.9 MEQ/L
TOTAL BILIRUBIN [1]: 0.23 mg/dL
TOTAL PROTEIN [1]: 5.68 G/DL
URIC ACID [1]: 1.75 mg/dL
ABSOLUTE BASOPHIL [2]: 0 CELLS/uL
ABSOLUTE EOSINOPHIL [2]: 58.67 CELLS/uL
ABSOLUTE LYMPHOCYTE [2]: 15950.83 CELLS/uL
ABSOLUTE MONOCYTE [2]: 172.5 CELLS/uL
ABSOLUTE SEGMENTED NEUTROPHIL [2]: 2551.33 CELLS/uL
BASOPHIL [2]: 0%
EOSINOPHIL [2]: 0.33%
ERYTHROCYTE COUNT [2]: 5.5 x10E6/uL
HEMATOCRIT [2]: 34.05%
HEMOGLOBIN [2]: 13.42 G/DL
LEUKOCYTE COUNT [2]: 18.73 x10E3/uL
LYMPHOCYTE [2]: 84.5%
MEAN CORPUSCULAR HEMOGLOBIN [2]: 24.42 pg
MEAN CORPUSCULAR HEMOGLOBIN CONCENTRATION [2]: 39.42 G/DL
MEAN CORPUSCULAR VOLUME [2]: 61.97 fL
MONOCYTE [2]: 1%
NEUTROPHIL [2]: 14.17%
NUCLEATED RED BLOOD CELLS [2]: 0.33 /100WBC
PLATELET COUNT [2]: 1143.17 x10E3/uL
ALANINE AMINOTRANSFERASE [2]: 57 u/L
ALBUMIN [2]: 4.17 G/DL
ALKALINE PHOSPHATASE [2]: 347.33 u/L
ASPARTATE AMINOTRANSFERASE [2]: 93.67 u/L
BLOOD UREA NITROGEN [2]: 15.67 mg/dL
CARBON DIOXIDE [2]: 27.17 mmol/L
CHLORIDE [2]: 104.33 MEQ/L
CHOLESTEROL [2]: 69.5 mg/dL
CREATINE PHOSPHOKINASE [2]: 317.17 u/L
CREATININE [2]: 0.2 mg/dL
GLUCOSE [2]: 162.33 mg/dL
LACTATE DEHYDROGENASE [2]: 408.67 u/L
LIPASE [2]: 10.17 u/L
PHOSPHORUS [2]: 11.08 mg/dL
POTASSIUM [2]: 6.36 MEQ/L
SODIUM [2]: 146.07 MEQ/L
TOTAL BILIRUBIN [2]: 0.22 mg/dL
TOTAL PROTEIN [2]: 5.92 G/DL
URIC ACID [2]: 1.47 mg/dL
ABSOLUTE BASOPHIL [3]: 0 CELLS/uL
ABSOLUTE EOSINOPHIL [3]: 0 CELLS/uL
ABSOLUTE LYMPHOCYTE [3]: 15609 CELLS/uL
ABSOLUTE MONOCYTE [3]: 50.67 CELLS/uL
ABSOLUTE SEGMENTED NEUTROPHIL [3]: 2173.67 CELLS/uL
BASOPHIL [3]: 0%
EOSINOPHIL [3]: 0%
ERYTHROCYTE COUNT [3]: 5.42 x10E6/uL
HEMATOCRIT [3]: 34.33%
HEMOGLOBIN [3]: 13.33 G/DL
LEUKOCYTE COUNT [3]: 17.83 x10E3/uL
LYMPHOCYTE [3]: 87.67%
MEAN CORPUSCULAR HEMOGLOBIN [3]: 24.6 pg
MEAN CORPUSCULAR HEMOGLOBIN CONCENTRATION [3]: 38.9 G/DL
MEAN CORPUSCULAR VOLUME [3]: 63.3 fL
MONOCYTE [3]: 0.33%
NEUTROPHIL [3]: 12%
NUCLEATED RED BLOOD CELLS [3]: 0 /100WBC
PLATELET COUNT [3]: 1271.33 x10E3/uL
ALANINE AMINOTRANSFERASE [3]: 68.33 u/L
ALBUMIN [3]: 3.87 G/DL
ALKALINE PHOSPHATASE [3]: 322.67 u/L
ASPARTATE AMINOTRANSFERASE [3]: 105.67 u/L
BLOOD UREA NITROGEN [3]: 16 mg/dL
CARBON DIOXIDE [3]: 30.33 mmol/L
CHLORIDE [3]: 103 MEQ/L
CHOLESTEROL [3]: 72.67 mg/dL
CREATINE PHOSPHOKINASE [3]: 481 u/L
CREATININE [3]: 0.24 mg/dL
GLUCOSE [3]: 139.67 mg/dL
LACTATE DEHYDROGENASE [3]: 535 u/L
LIPASE [3]: 10 u/L
PHOSPHORUS [3]: 11.37 mg/dL
POTASSIUM [3]: 6.77 MEQ/L
SODIUM [3]: 145.27 MEQ/L
TOTAL BILIRUBIN [3]: 0.2 mg/dL
TOTAL PROTEIN [3]: 5.3 G/DL
URIC ACID [3]: 1.6 mg/dL
